Key:
ΔF508 CTFR [1] = molecular target: T1, ΔF508 CTFR (Homo sapiens, UniProt P13569, DEL508-508); test: Corrector assay, FRT cell electrophysiological (Ussing chamber) assay; assay type: cell-based; conditions: FRT cells treated 24 hours with 3 μM compound; total change in ISC normalized to 10 μM reference corrector C17
T1 construct: expressed in transfected cells; host or cells: FRT epithelial cells (Fischer rat thyroid)
Description: (§1) For use in the corrector assay, FRT epithelial cell monolayers are grown on Snapwell filter inserts and optionally treated with a compound of invention, vehicle (DMSO) or reference corrector N-(2-(5-chloro-2-methoxyphenylamino)-4′-methyl-4,5′-bithiazol-2′-yl)pivalamide (C17). Cells are exposed to compound, vehicle (negative control) or reference corrector (positive control) in a cell/tissue incubator at 37° C. for 24 hours prior to the assay. The inserts are then transferred to a Physiologic Instruments Ussing chamber (P2302) and superfused with 5 ml of a HEPES buffered physiological saline (HB-PS) as the serosal solution with composition (in mM): NaCl, 137; KCl, 4.0; CaCl2, 1.8; MgCl2, 1; HEPES, 10; Glucose, 10; pH adjusted to 7.4 with NaOH. The mucosal solution will be 5 ml of 10CF—PS with composition (in mM): Na-gluconate, 137; KCl, 4; CaCl2, 1.8; MgCl2, 1; HEPES, 10; Glucose, 10; pH adjusted to 7.4 with N-methyl-D-glucamine to create a transepithelial Cl ion gradient. Transepithelial voltage is clamped to 0 mV and the short circuit current (ISC)—reflecting the net ion (Cl—) transport across the epithelial cell monolayer—is measured using a Physiologic Instruments VCC MC8 epithelial voltage clamp (Physiologic Instruments, Inc., San Diego, Calif.). The assay is carried out at 27° C.
(§2) After acquisition of at least 10 minutes of baseline current, agonists (final concentrations: 10 μM forskolin, 100 μM 3-isobutyl-1-methylxanthine [IBMX] and 20 μM genistein) and antagonist (final concentration: 20 μM CFTRinh-172) will be applied sequentially and cumulatively at ˜10-15 minute intervals to both serosal and mucosal epithelial surfaces. On occasion where a 10-15 min interval is not sufficient for ISC to reach a new steady-state after compound addition, the interval between compound additions may have been extended.
(§3) Agonists are added as 200×-1000× stock solutions to both the serosal and mucosal sides. Transepithelial resistance is monitored every 20 s. In a potentiator assay, appropriate volumes from 10 mM compound stock solution in DMSO are added to the mucosal side (i.e. the 10CF—PS solution containing half chamber) of vehicle treated inserts. Compound is added acutely after activation of CFTR by Forskolin and prior to additions of IBMX, genistein, and CFTRinh-172.
(§4) Corrector efficacy—as given in Table 3—is measured as the total change in ISC (i.e. the difference in ISC before and after addition of all agonists) obtained from cells treated with 3 μM compound of invention and normalized to the total change in ISC obtained from the same batch of cells treated contemporaneously with 10 μM reference corrector C17. Potentiator efficacy—as given in Table 3—is measured as the change in ISC after acute addition of 1 μM compound to the mucosal side of vehicle treated cells divided by the total change in ISC after sequential additions of 1 μM compound, 100 μM IBMX, and 20 μM genistein.

ΔF508 CTFR [2] = molecular target: T1, ΔF508 CTFR; test: Potentiator assay, FRT cell electrophysiological (Ussing chamber) assay; assay type: cell-based; conditions: change in ISC after acute addition of 1 μM compound to mucosal side of vehicle treated FRT cells divided by total change in ISC after 1 μM compound, 100 μM IBMX, 20 μM genistein
Description: as §1, §2, §3, §4

T1 sequence (P13569 with tags, fused parts or gaps DEL508-508): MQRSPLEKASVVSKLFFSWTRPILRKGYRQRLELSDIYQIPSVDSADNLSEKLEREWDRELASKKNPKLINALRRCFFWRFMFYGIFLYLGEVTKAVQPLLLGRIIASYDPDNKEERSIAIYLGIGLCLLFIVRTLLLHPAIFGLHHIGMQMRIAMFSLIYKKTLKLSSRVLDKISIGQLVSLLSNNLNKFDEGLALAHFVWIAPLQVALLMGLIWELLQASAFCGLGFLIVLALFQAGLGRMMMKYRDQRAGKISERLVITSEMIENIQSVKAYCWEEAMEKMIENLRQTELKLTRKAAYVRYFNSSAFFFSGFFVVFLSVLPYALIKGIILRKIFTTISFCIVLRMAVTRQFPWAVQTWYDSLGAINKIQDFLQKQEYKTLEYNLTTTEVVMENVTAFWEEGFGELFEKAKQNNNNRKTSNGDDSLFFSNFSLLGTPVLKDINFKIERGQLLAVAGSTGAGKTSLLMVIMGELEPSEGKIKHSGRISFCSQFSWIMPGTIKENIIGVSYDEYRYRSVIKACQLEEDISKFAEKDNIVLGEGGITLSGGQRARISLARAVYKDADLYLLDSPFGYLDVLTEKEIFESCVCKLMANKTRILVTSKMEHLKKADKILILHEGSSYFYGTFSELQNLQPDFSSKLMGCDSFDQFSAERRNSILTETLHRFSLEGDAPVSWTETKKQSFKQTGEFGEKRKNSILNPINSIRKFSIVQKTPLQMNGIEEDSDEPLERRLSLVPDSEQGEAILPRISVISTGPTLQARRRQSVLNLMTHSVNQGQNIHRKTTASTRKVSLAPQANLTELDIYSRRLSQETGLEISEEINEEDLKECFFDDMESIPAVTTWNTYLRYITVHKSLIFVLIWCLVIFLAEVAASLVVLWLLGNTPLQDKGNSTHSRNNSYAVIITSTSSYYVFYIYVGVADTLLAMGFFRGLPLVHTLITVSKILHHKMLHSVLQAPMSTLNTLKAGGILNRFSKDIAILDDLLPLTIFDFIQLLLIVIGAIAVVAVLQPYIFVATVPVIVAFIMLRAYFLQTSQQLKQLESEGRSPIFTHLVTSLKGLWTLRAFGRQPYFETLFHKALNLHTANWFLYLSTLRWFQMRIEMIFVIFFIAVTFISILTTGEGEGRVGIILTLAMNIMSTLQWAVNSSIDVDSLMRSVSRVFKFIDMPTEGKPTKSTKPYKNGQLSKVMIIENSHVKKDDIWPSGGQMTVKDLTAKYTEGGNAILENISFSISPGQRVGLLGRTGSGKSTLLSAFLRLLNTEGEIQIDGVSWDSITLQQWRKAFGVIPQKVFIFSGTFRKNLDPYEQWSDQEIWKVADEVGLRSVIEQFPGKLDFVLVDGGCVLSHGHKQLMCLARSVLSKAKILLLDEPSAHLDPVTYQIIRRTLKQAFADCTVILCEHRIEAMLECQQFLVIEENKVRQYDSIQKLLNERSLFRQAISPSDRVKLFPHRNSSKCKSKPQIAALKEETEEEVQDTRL

Row | Compound | Corrector Efficacy (ΔF508 CTFR [1]) | Potentiator Efficacy (ΔF508 CTFR [2])
1 | CN(C)S(=O)(=O)N1CC(Oc2nc(N[C@H]3CC[C@@H](C)CC3)ncc2-c2ccc(N3CCOCC3)cc2)C1 [Example 1, N,N-dimethyl-3-(2-((1s,4s)-4-methylcyclohexylamino)-5-(4-morpholinophenyl)-pyrimidin-4-yloxy)azetidine-1-sulfonamide] | +++ (+++=>0.6) | ++ (++=0.1-0.25)
2 | C[C@H]1CC[C@@H](Nc2ncc(-c3ccc(O[C@H]4CCOC4)cc3)c(O[C@@H]3CCOC3)n2)CC1.Cl [Example 6, 4-((R)-tetrahydrofuran-3-yloxy)-5-(4-((S)-tetrahydrofuran-3-yloxy)phenyl)-N-(cis-4-methylcyclohexyl)pyrimidin-2-amine hydrochloride salt] | ++ (++=0.3-0.6) | ++ (++=0.1-0.25)
3 | Cc1nc(N[C@H]2CC[C@@H](C)CC2)nc(O[C@@H]2CCOC2)c1-c1ccc(N2CCOCC2)cc1 [Example 43, 4-methyl-N-((1s,4S)-4-methylcyclohexyl)-5-(4-morpholinophenyl)-6((R)-tetrahydrofuran-3-yloxy)pyrimidin-2-amine] | ++ (++=0.3-0.6) | + (+=<0.1)
4 | CS(=O)(=O)N1CC(Oc2nc(N[C@H]3CC[C@@H](C)CC3)ncc2-c2ccc(N3CCOCC3)cc2)C1 [Example 59, N-((1s,4s)-4-methylcyclohexyl)-4-(1-(methylsulfonyl)azetidin-3-yloxy)-5-(4-morpholinophenyl)pyrimidin-2-amine] | ++ (++=0.3-0.6) | + (+=<0.1)
5 | CS(=O)(=O)N1CC[C@@H](COc2nc(N[C@H]3CC[C@@H](C)CC3)ncc2-c2ccc(N3CCOCC3)cc2)C1 [Example 78] | ++ (++=0.3-0.6) | + (+=<0.1)
6 | CS(=O)(=O)N1CC(COc2nc(N[C@H]3CC[C@@H](C)CC3)ncc2-c2ccc(N3CCOCC3)cc2)C1 [Example 80, N-((1s,4s)-4-methylcyclohexyl)-4-((1-(methylsulfonyl)azetidin-3-yl)methoxy)-5-(4-morpholinophenyl)pyrimidin-2-amine] | ++ (++=0.3-0.6) | +++ (+++=>0.25)
7 | CC1CCC(Nc2ncc(-c3ccc(O[C@@H]4CCOC4)cc3)c(OC3CCOCC3)n2)CC1 (stereo partly drawn) [Example 93, N-((1s,4s)-4-methylcyclohexyl)-4-(tetrahydro-2H-pyran-4-yloxy)-5-(4-((R)-tetrahydrofuran-3-yloxy)phenyl)pyrimidin-2-amine] | +++ (+++=>0.6) | ++ (++=0.1-0.25)
8 | COC(=O)N1CCC(Oc2ccc(-c3cnc(NC4CCC(C)CC4)nc3O[C@@H]3CCOC3)cc2)C1 (stereo partly drawn) [Example 103, methyl 3-(4-(2-((1s,4S)-4-methylcyclohexylamino)-4-((R)-tetrahydrofuran-3-yloxy)pyrimidin-5-yl)phenoxy)pyrrolidine-1-carboxylate] | ++ (++=0.3-0.6) | + (+=<0.1)
9 | CC1CCC(Nc2ncc(-c3ccc(OC4CCN(C(=O)N(C)C)C4)cc3)c(O[C@@H]3CCOC3)n2)CC1 (stereo partly drawn) [Example 112, N,N-dimethyl-3-(4-(2-((1s,4S)-4-methylcyclohexylamino)-4-((R)-tetrahydrofuran-3-yloxy)pyrimidin-5-yl)phenoxy)pyrrolidine-1-carboxamide] | ++ (++=0.3-0.6) | + (+=<0.1)
10 | CC1CCC(Nc2ncc(-c3ccc(O[C@H]4CCOC4)cc3)c(OC3CCN(S(C)(=O)=O)CC3)n2)CC1 (stereo partly drawn) [Example 152, N-((1s,4s)-4-methylcyclohexyl)-4-(1-(methylsulfonyl)piperidin-4-yloxy)-5-(4-((S)-tetrahydrofuran-3-yloxy)phenyl)pyrimidin-2-amine] | +++ (+++=>0.6) | +++ (+++=>0.25)
11 | COCCOc1ccc(-c2cnc(N[C@H]3CC[C@@H](C)CC3)nc2OC2CN(S(C)(=O)=O)C2)cc1 [Example 153, 5-(4-(2-methoxyethoxy)phenyl)-N-((1s,4s)-4-methylcyclohexyl)-4-(1-(methylsulfonyl)azetidin-3-yloxy)pyrimidin-2-amine] | ++ (++=0.3-0.6) | + (+=<0.1)
12 | CC1CCCC(C)C1Nc1ncc(-c2ccc(O[C@H]3CCOC3)cc2)c(O[C@@H]2CCOC2)n1 (stereo partly drawn) [Example 170, N-(2,6-dimethylcyclohexyl)-4-((R)-tetrahydrofuran-3-yloxy)-5-(4-((S)-tetrahydrofuran-3-yloxy)phenyl)pyrimidin-2-amine] | +++ (+++=>0.6) | + (+=<0.1)
13 | COCCc1ccc(-c2cnc(N[C@H]3CC[C@@H](C)CC3)nc2OC2CCN(C(=O)OC)CC2)cc1 [Example 206, methyl 4-(5-(4-(2-methoxyethyl)phenyl)-2-((1s,4s)-4-methylcyclohexylamino)pyrimidin-4-yloxy)piperidine-1-carboxylate] | ++ (++=0.3-0.6) | + (+=<0.1)
14 | CC1CCC(Nc2ncc(-c3ccc(O[C@@H]4CCOC4)cc3)c(OC3CN(S(=O)(=O)N(C)C)C3)n2)CC1 (stereo partly drawn) [Example 207, N,N-dimethyl-3-(2-((1s,4s)-4-methylcyclohexylamino)-5-(4-((R)-tetrahydrofuran-3-yloxy)phenyl)pyrimidin-4-yloxy)azetidine-1-sulfonamide] | +++ (+++=>0.6) | + (+=<0.1)
15 | CC1CCC(Nc2ncc(-c3ccc(O[C@H]4CCOC4)cc3)c(OC3CN(S(=O)(=O)N(C)C)C3)n2)CC1 (stereo partly drawn) [Example 214, N,N-dimethyl-3-(2-((1s,4s)-4-methylcyclohexylamino)-5-(4-((S)-tetrahydrofuran-3-yloxy)phenyl)pyrimidin-4-yloxy)azetidine-1-sulfonamide] | +++ (+++=>0.6) | + (+=<0.1)
16 | CC1CCC(Nc2ncc(-c3ccc(O[C@H]4CCOC4)cc3)c(OC3CN(S(=O)(=O)C4CC4)C3)n2)CC1 (stereo partly drawn) [Example 215, 4-(1-(cyclopropylsulfonyl)azetidin-3-yloxy)-N-((1s,4s)-4-methylcyclohexyl)-5-(4-((S)-tetrahydrofuran-3-yloxy)phenyl)pyrimidin-2-amine] | +++ (+++=>0.6) | +++ (+++=>0.25)

Source: patent US8334292B1, “Pyrimidine compounds and methods of making and using same” (Cystic Fibrosis Foundation Therapeutics, Inc., priority 2010, dated 2012)
